Read-outs that look alike come from different tables or passages of the source.
What was measured:
HeLa cells = test: Proliferation assay HeLa (crystal violet)
Description: (§1) After 24 hours, the cells of one plate (zero plate) were dyed with crystal violet (see below), whereas the medium of the other plates was replaced with fresh culture medium (200 μl) to which the test substances were added in various concentrations (0 μM, and also in the range of 0.001-10 μM; the final concentration of the solvent dimethyl sulphoxide was 0.1 or 0.5%). The cells were incubated for 4 days in the presence of the test substances. […] After washing the fixed cells three times with water, the plates were dried at room temperature. The cells were stained by adding 100 μl/measurement point of a 0.1% strength crystal violet solution (pH adjusted to pH 3 by adding acetic acid). After washing the cells three times with water, the plates were dried at room temperature. The dye was dissolved by adding 100 μl/measurement point of a 10% strength acetic acid solution. […] The percentage change in cell growth was calculated by normalizing the measured values to the absorbance values of the zero plate (=0%) and the absorbance of the untreated (0 μM) cells (=100%). The IC50 values were determined by means of a four parameter fit.

[1] = molecular target: full-length human ATR protein (Homo sapiens (Human), UniProt Q13535); test: Binding assay ATR (TR-FRET tracer displacement); conditions: TR-FRET
Procedure, shortened: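 Full-length human GST-ATR co-purified with ATRIP, pre-complexed 30 min at 22 °C with anti-GST-Tb antibody, then pre-bound with compound 10 min. Tracer A or B added (2 µl of 100 nM solution), 30 min at 22 °C.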

NCI-H460 cells = test: Proliferation assay NCI-H460 (crystal violet); conditions: read-out: Inhibition of NCI-H460 cell proliferation, 4 days incubation
Description: as §1

B16F10 cells = test: Proliferation assay B16F10 (crystal violet); conditions: read-out: Inhibition of B16F10 cell proliferation, 4 days incubation
Description: as §1

Caco-2 cells = test: Proliferation assay Caco-2 (crystal violet); format: cell-based, human; conditions: 4 days incubation, read-out: Inhibition of Caco-2 cell proliferation
Description: as §1

DU145 cells = test: Proliferation assay DU145 (crystal violet); conditions: read-out: Inhibition of DU145 cell proliferation, 4 days incubation
Description: as §1

[2] = tracer A, read-out: ATR binding (tracer A) IC50
[3] = tracer B, read-out: ATR binding (tracer B) IC50

Chain of full-length human ATR protein (Q13535 other isoform, or with tags, fused parts or gaps): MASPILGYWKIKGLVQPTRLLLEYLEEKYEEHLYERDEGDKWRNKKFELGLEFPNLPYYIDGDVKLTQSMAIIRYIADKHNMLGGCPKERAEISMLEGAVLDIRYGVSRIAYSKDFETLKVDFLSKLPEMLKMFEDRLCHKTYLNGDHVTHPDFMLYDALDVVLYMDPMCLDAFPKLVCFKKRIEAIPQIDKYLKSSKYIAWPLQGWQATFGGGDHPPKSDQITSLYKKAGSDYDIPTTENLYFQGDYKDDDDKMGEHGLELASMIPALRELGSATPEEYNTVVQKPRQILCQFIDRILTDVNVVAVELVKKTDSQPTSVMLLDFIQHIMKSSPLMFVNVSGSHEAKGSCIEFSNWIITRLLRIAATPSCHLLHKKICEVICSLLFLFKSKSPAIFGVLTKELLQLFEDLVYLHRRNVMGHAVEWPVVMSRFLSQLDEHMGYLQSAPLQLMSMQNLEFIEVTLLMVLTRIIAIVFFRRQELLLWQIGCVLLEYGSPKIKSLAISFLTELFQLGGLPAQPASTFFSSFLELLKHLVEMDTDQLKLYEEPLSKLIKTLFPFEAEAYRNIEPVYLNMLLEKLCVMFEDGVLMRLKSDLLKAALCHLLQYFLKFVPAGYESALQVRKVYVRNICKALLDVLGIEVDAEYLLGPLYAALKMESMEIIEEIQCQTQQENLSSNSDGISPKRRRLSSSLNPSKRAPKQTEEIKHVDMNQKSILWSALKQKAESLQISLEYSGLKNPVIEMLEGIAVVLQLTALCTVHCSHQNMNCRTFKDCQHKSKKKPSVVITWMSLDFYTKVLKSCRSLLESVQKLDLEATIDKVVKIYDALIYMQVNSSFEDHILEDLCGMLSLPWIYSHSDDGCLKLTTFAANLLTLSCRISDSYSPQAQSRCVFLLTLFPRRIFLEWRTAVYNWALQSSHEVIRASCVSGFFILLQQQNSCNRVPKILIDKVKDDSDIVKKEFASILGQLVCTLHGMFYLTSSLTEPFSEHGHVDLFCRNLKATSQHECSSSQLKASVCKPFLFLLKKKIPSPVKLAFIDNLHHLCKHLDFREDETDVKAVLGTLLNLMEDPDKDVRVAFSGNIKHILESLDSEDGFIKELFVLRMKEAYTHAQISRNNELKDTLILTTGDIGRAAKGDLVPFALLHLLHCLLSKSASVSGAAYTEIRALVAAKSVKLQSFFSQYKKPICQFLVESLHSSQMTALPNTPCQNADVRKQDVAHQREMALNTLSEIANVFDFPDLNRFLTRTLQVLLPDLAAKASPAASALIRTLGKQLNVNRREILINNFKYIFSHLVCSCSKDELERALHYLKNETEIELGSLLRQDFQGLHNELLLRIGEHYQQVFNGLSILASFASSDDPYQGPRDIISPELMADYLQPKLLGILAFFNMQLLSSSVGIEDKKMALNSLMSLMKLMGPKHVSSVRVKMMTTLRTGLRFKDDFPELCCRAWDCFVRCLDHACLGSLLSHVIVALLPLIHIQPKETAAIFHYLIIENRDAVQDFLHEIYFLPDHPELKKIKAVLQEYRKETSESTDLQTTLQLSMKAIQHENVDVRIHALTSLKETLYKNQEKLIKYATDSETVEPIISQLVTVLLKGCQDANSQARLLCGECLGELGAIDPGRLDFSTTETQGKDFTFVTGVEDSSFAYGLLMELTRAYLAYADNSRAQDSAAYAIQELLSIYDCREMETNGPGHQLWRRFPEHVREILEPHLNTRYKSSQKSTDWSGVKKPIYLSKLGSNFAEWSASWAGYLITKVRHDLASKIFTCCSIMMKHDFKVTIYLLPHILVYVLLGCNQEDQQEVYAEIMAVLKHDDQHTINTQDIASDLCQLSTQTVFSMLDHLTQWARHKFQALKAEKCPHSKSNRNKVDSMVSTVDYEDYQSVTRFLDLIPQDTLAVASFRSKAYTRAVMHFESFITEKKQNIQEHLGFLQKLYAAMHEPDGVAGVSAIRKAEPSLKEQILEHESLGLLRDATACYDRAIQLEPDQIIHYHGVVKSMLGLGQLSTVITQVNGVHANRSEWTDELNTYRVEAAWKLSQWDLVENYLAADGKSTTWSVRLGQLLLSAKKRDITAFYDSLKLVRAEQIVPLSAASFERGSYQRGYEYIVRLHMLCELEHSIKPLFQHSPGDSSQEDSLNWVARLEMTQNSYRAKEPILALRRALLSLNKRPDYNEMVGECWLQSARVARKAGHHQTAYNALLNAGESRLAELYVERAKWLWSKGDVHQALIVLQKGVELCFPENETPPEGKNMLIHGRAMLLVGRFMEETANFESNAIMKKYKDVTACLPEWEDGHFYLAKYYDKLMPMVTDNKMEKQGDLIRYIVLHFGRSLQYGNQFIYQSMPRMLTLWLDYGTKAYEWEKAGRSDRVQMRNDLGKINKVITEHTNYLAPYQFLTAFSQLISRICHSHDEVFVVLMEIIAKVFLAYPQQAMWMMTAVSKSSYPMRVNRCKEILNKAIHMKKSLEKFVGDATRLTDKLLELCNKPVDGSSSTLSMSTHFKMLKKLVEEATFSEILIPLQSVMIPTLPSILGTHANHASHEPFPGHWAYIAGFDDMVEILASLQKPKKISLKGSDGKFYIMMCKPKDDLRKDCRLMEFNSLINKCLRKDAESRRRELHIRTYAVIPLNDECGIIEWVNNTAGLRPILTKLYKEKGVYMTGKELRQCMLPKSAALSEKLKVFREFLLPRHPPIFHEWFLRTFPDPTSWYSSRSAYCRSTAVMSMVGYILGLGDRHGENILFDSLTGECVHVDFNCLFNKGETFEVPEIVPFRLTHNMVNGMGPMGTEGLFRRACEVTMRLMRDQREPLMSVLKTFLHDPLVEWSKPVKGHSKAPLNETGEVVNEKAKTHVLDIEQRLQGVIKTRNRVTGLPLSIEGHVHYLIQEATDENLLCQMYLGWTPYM
Chain of full-length human ATR protein (Q8WXE1 other isoform, or with tags, fused parts or gaps partner): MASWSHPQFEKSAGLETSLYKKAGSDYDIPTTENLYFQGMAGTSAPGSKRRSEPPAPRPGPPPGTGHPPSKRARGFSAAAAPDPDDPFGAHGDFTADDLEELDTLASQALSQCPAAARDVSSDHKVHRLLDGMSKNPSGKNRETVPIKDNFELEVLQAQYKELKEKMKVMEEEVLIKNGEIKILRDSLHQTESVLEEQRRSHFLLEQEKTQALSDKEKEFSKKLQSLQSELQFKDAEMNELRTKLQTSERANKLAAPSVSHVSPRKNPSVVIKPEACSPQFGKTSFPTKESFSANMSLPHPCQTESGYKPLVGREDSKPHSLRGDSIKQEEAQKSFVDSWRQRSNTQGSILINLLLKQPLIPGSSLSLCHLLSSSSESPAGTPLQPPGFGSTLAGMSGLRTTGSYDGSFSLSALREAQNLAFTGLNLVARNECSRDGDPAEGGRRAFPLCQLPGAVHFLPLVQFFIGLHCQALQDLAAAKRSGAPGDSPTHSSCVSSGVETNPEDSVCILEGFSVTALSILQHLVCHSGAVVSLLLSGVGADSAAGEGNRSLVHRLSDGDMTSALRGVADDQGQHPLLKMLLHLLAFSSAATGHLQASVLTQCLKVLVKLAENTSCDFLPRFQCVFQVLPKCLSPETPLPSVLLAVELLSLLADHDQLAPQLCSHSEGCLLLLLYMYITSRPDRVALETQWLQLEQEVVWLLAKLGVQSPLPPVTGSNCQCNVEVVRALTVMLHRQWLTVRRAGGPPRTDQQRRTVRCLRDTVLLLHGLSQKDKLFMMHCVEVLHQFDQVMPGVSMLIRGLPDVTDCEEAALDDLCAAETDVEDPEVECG

Compound | IC50 [1, 2] [nM] | also measured
5-fluoro-2-{2-[(3R)-3-methylmorpholin-4-yl]-8-(1H-pyrazol-5-yl)-1,7-naphthyridin-4-yl}aniline [Example 190] |  | IC50 (HeLa cells; read-out: Inhibition of HeLa cell proliferation, HeLa cells, 4 days incubation, crystal violet): 334 nM
CS(=O)(=O)c1cc(N2CCOCC2)nc2c(-c3cc[nH]n3)nccc12 [Example 32] | 84.7 | IC50 [1, 3]: 36.7 nM; IC50 (NCI-H460 cells): 1950 nM
CC(C)Oc1cc(N2CCOCC2)nc2c(-c3cc[nH]n3)nccc12 [Example 40, 4-isopropoxy-2-(morpholin-4-yl)-8-(1H-pyrazol-3-yl)-[1,7]naphthyridine] | 125 | IC50 [1, 3]: 99 nM; IC50 (B16F10 cells): > 3000 nM
CCOP(C)(=O)c1cc(N2CCOC[C@H]2C)nc2c(-c3ccn[nH]3)nccc12 (stereo partly drawn) [Example 125, Ethyl methyl{2-[(3R)-3-methylmorpholin-4-yl]-8-(1H-pyrazol-5-yl)-1,7-naphthyridin-4-yl}phosphinate] | 17.2 | IC50 (Caco-2 cells): 2630 nM; IC50 (DU145 cells): 764 nM; IC50 (NCI-H460 cells): 541 nM
c1cc(-c2nccc3c(N4C[C@@H]5C[C@H]4CO5)cc(N4CCOCC4)nc23)[nH]n1 [Example 185, 2-(morpholin-4-yl)-4-[(1S,4S)-2-oxa-5-azabicyclo[2.2.1]hept-5-yl]-8-(1H-pyrazol-5-yl)-1,7-naphthyridine] | 852 | IC50 (HeLa cells; Homo sapiens, HeLa, 96 h, read-out: Inhibition of HeLa cell proliferation, HeLa cells, 4 days incubation, crystal violet): > 3000 nM
O=S1(=O)CCCN1c1cc(N2CCOCC2)nc2c(-c3ccn[nH]3)nccc12 [Example 216, 4-(1,1-dioxido-1,2-thiazolidin-2-yl)-2-(morpholin-4-yl)-8-(1H-pyrazol-5-yl)-1,7-naphthyridine] | 84.4 | IC50 (DU145 cells): 1330 nM; IC50 (NCI-H460 cells): 1020 nM
CN(c1ccccc1F)c1cc(N2CCOCC2)nc2c(-c3ccn[nH]3)nccc12 [Example 427, N-(2-fluorophenyl)-N-methyl-2-(morpholin-4-yl)-8-(1H-pyrazol-5-yl)-1,7-naphthyridin-4-amine] | 112 | 
OCC1CCN(c2cc(N3CCOCC3)nc3c(-c4ccn[nH]4)nccc23)CC1 [Example 429, {1-[2-(morpholin-4-yl)-8-(1H-pyrazol-5-yl)-1,7-naphthyridin-4-yl]piperidin-4-yl}methanol] | 44.8 | 
COC1CCN(c2cc(N3CCOCC3)nc3c(-c4ccn[nH]4)nccc23)CC1 [Example 430, 4-(4-methoxypiperidin-1-yl)-2-(morpholin-4-yl)-8-(1H-pyrazol-5-yl)-1,7-naphthyridine] | 61.3 | 
CN(c1ccc(F)cc1)c1cc(N2CCOCC2)nc2c(-c3ccn[nH]3)nccc12 [Example 431, N-(4-fluorophenyl)-N-methyl-2-(morpholin-4-yl)-8-(1H-pyrazol-5-yl)-1,7-naphthyridin-4-amine] | 34.7 | 
CNC(=O)[C@@H]1CCCN1c1cc(N2CCOCC2)nc2c(-c3ccn[nH]3)nccc12 [Example 432, N-methyl-1-[2-(morpholin-4-yl)-8-(1H-pyrazol-5-yl)-1,7-naphthyridin-4-yl]-prolinamide] | 2040 | 
CCS(=O)(=O)N1CCN(c2cc(N3CCOCC3)nc3c(-c4ccn[nH]4)nccc23)CC1 [Example 433, 4-[4-(ethylsulfonyl)piperazin-1-yl]-2-(morpholin-4-yl)-8-(1H-pyrazol-5-yl)-1,7-naphthyridine] | 41.6 | 
CS(=O)(=O)N1CCN(c2cc(N3CCOCC3)nc3c(-c4ccn[nH]4)nccc23)CC1 [Example 434, 4-[4-(methylsulfonyl)piperazin-1-yl]-2-(morpholin-4-yl)-8-(1H-pyrazol-5-yl)-1,7-naphthyridine] | 31.8 | 
CN(c1cc(N2CCOCC2)nc2c(-c3ccn[nH]3)nccc12)C1CC1 [Example 435, N-cyclopropyl-N-methyl-2-(morpholin-4-yl)-8-(1H-pyrazol-5-yl)-1,7-naphthyridin-4-amine] | 65.1 | 
CN(CC(C)(C)C)c1cc(N2CCOCC2)nc2c(-c3ccn[nH]3)nccc12 [Example 436, N-(2,2-dimethylpropyl)-N-methyl-2-(morpholin-4-yl)-8-(1H-pyrazol-5-yl)-1,7-naphthyridin-4-amine] | 24 | 

— US9549932B2, “2-(morpholin-4-yl)-1,7-naphthyridines” (BAYER PHARMA AKTIENGESELLSCHAFT, priority 2014, dated 2017)
